Measured values published in patent EP3318253B1, “COMPOSITIONS COMPRISING WNT INHIBITORS FOR TREATING CANCER” (Schmidt-Wolf, Ingo, priority 2010, dated 2012).
Read-outs that look alike come from different tables or passages of the source.

Tests used:
[1] = tested on: OPM-2, U266 and RPMI 8226 cells; experiment: Cell viability by DiOC6 staining in myeloma cell lines (mean IC50, combinations); assay type: cell-based, human; settings: for IC50: Homo sapiens, mean of the IC50 results in OPM-2, U266 and RPMI 8226 cells; for viability of myeloma cell lines in vitro: result in words
Description: A mean IC50 value in myeloma cells was determined using the mean of the IC50 results determined in OPM-2, U266 and RPMI 8226 cells.
(§1) • Figure 1. […] Data are shown as mean ± SD. • Figure 2. […] Data are shown as mean ± SD. • Figure 3. […] (A) Flow cytometric results. […] Finally, ECL reagent was utilized for detection. • Figure 4C. […] Finally, ECL reagent was utilized for detection. • Figure 5. Effect of EA on viability of myeloma primary cells. […] Results represent data from two separate experiments. Data are shown as mean. • Figure 6. […] (A) Tumor growth and (B) overall survival were measured. Six animals were assayed per group.
Experiments were performed as reported recently. […]

[2] = tested on: PBMC; experiment: Cell viability by DiOC6 staining, flow cytometry (normal control cells); assay type: cell-based, human; settings: for IC50: Homo sapiens, 72 h, PBMC from healthy individuals, three days; for effect on normal PBMC and PBL: result in words
Description: PBMCs were isolated from blood of healthy donors by Ficoll-Hypaque density gradient centrifugation. Blood from buffy coats was mixed 1:2 with PBS/1% BSA (both PAA, Cölbe, Germany) and used for a ficoll gradient (LymphoPrep, PAA, Cölbe, Germany). After the centrifugation at 800 g for 30 minutes, the leukocyte layer was removed and transferred to new tubes. Subsequently, these cells were washed 3 times with PBS/1%BSA and re-suspended in fresh medium, consisting of RPMI medium (PAA, Cölbe, Germany) with 10% fetal calf serum (Invitrogen, Karlsruhe, Germany), 2.5% hepes buffer solution (PAA, Cölbe, Germany), and 1% penicillin/streptomycin (PAA, Cölbe, Germany).
(§2) Experiments were performed as reported recently.

[3] = tested on: lymphoma cell lines; experiment: Cell viability by DiOC6 staining in lymphoma cell lines; assay type: cell-based, human; settings: result in words
Description: as §2
(§3) PBL derived from healthy individuals were used as controls. […] ND, not done.

[4] = tested on: PBL
Description: (§4) Peripheral blood mononuclear cells (PBMC) and PBL were isolated from blood samples of healthy volunteers by Ficoll density gradient centrifugation (Lymphoprep, Nycomed, Oslo, Norway).
(§5) 1x10^5 Cells were cultured in 3 ml Medium in 6-well plates. […] The apoptosis assay was performed with 3'3-dihexyloxacarbocyanine iodide (DiOC6) detecting mitochondrial membrane potential in viable cells, and propidium iodide (PI) which binds to DNA in necrotic cells, measured by a fluorescence-activated cell sorter (FACS).
(§6) For FACS analysis, 500µl staining solution containing 80 nM DiOC6 in FACS buffer, consisting of deficient RPMI-medium with 0.5% bovine serum albumin (BSA), was mixed with equal volumes of the cell sample in a glass tube and incubated at 37°C for 15 min. After a washing step with PBS/BSA 1% the cells were re-suspended in 500µl PBS/BSA 1%. After addition of 5µl PI-solution (100µg/ml) the cells were analyzed by FACS. Using this assay, viable cells reveal high fluorescence intensity for DiOC6 and a low expression for PI. In contrary, apoptotic cells show a low expression for DiOC6 and also a low expression for PI (2). Finally, necrotic cells show a low expression for DiOC6 and a high expression for PI.
(§7) PBMC and PBL derived from healthy individuals were used as normal controls. 1x10^5 cells were cultured with each compound using various concentrations for three days. Then cell viability was measured by DIOC6 staining by flow cytometry. Results represent data from two to four separate experiments each.
(§8) PBMC and PBL derived from healthy individuals were used as normal controls. 1x10^5 cells were cultured with each compound using various concentrations for three days. Then cell viability was measured by DIOC6 staining by flow cytometry. Results represent data from 2 to 4 separate experiments each.
(§9) 1x10^5 Cells were cultured in 3 ml Medium in 6-well plates. […] The apoptosis assay was performed with 3' 3-dihexyloxacarbocyanine iodide (DiOC6) detecting mitochondrial membrane potential in viable cells, and propidium iodide (PI) which binds to DNA in necrotic cells, measured by a fluorescence-activated cell sorter (FACS).
(§10) PBL derived from healthy individuals were used as controls. 1x10^5 cells were cultured with each compound using various concentrations for three days. Then cell viability was measured by DIOC6 staining by flow cytometry and IC 50 rates were determined. Results represent data from 2 to 4 separate experiments each.
(§11) PBMC and PBL derived from healthy individuals were used as controls. 1x10^5 cells were cultured with each compound using various concentrations for three days.

[5] = tested on: PBL; experiment: Cell viability by DiOC6 staining, flow cytometry (normal control cells); settings: for IC50: Homo sapiens, PBL, 72 h; for effect on normal PBL: result in words
Description: as §4, §5, §6, §7, §8, §9, §10, §11

[6] = tested on: SU-DHL 4; experiment: Cell viability by DiOC6 staining, flow cytometry; assay type: cell-based; settings: Homo sapiens, 72 h; SU-DHL 4; 1x10^5 cells cultured three days, various concentrations
Description: as §2, §3

[7] = tested on: Raji; experiment: Cell viability by DiOC6 staining, flow cytometry; assay type: cell-based; settings: Homo sapiens, 72 h, 1x10^5 cells cultured three days, various concentrations
Description: as §2, §3

[8] = tested on: OCI-Ly8 LAM53; experiment: Cell viability by DiOC6 staining, flow cytometry; assay type: cell-based; settings: Homo sapiens, 72 h; OCI-Ly8 LAM53; 1x10^5 cells cultured three days, various concentrations
Description: as §2, §3

[9] = tested on: RPMI 8226; experiment: Cell viability by DiOC6 staining, flow cytometry; assay type: cell-based; settings: Homo sapiens, 72 h, 1x10^5 cells cultured three days, various concentrations
Description: as §2, §3

[10] = tested on: U266; experiment: Cell viability by DiOC6 staining, flow cytometry; assay type: cell-based; settings: Homo sapiens, U-266, 72 h, 1x10^5 cells cultured three days, various concentrations
Description: as §2, §3

[11] = tested on: OPM-2 myeloma cells; experiment: Cell viability by DiOC6 staining, flow cytometry; assay type: cell-based, human; settings: for IC50: Homo sapiens, 72 h, OPM-2, 1x10^5 cells cultured three days, various concentrations
Description: as §2, §3

[12] = tested on: MPC11 myeloma cells; settings: gavage, daily dosage 450 µg per animal; for overall survival time: compared to the control group; for animals in which solid tumor nodules formed: treatment group of 6
Description: All animal experiments were done at least in duplicate with groups of 6 BALB/c mice (Charles River, Sulzfeld, Germany). 5x10^5 MCP11 murine myeloma cells were injected per mouse subcutaneously into Balb/c mice. […] Overall survival and tumor growth were measured. Tumor volume was calculated as follows: volume = length x width^2 x 0,52. Animals were killed when tumor volume reached 2000 mm^3.
• Figure 1. […] 1x10^5 cells were cultured with different compounds for three days. The concentration of thalidomide was U266 160µM for U266, RPMI 20µM for RPMI, and OPM 40µM for OPM cells. Then cell viability was measured by DIOC6 staining in flow cytometry. Results represent data from three, two and five separate experiments, respectively. Separate U266 n=3, RPMI n=2, OPM n=5 experiments. Data are shown as mean ± SD. • Figure 2. […] 1x10^5 OPM cells were cultured with the different compounds for three days. The concentration of lenalidomide was 12µM for OPM and 80µM for RPMI cells. Then cell viability was measured by DIOC6 staining in flow cytometry. Results represent data from eight and five OPM n=8, RPMI n=5 separate experiments, respectively. Data are shown as mean ± SD. • Figure 3. […] (A) Flow cytometric results. […] Western Blot analysis for the detection of β-catenin in myeloma cell lines under normal conditions. The myeloma cell lines RPMI 8226, KMS-18 and U266 were analyzed according to their β-catenin expression. • Figure 4B. […] As primary antibodies purified mouse anti-β-catenin and β-actin were used at a dilution of 1:1000 and as secondary antibody served goat anti-mouse IgG-HRP at a dilution of 1:5000. Finally, ECL reagent was utilized for detection. • Figure 4C. […] As primary antibodies Purified mouse anti-β-catenin and β-actin were used at a dilution of 1:1000 and as secondary antibody served goat anti-mouse IgG-HRP at a dilution of 1:5000. Finally, ECL reagent was utilized for detection. • Figure 5. […] Results represent data from two separate experiments. Data are shown as mean. • Figure 6. […] BALB/c mice were injected with 5x10^5 MPC11 myeloma cells subcutaneously. (A) Tumor growth and (B) overall survival were measured. Six animals were assayed per group.
All animal experiments were done at least in duplicate with groups of 6 BALB/c mice (Charles River, Sulzfeld, Germany). 5x10^5 MCP11 murine myeloma cells were injected per mouse subcutaneously into Balb/c mice. Mice were treated orally with 450µg/day CIC and 750 µg lenalidomide/day, respectively. Overall survival and tumor growth were measured. Tumor volume was calculated as follows: volume = length x width^2 x 0,52. Animals were killed when tumor volume reached 2000 mm^3.
• Figure 7. […] 1x10^5 cells were cultured with different compounds for three days. The concentration of thalidomide was U266 160µM for U266, RPMI 20µM for RPMI, and OPM 40µM for OPM cells. Then cell viability was measured by DIOC6 staining in flow cytometry. Results represent data from three, two and five separate experiments, respectively. Separate U266 n=3, RPMI n=2, OPM n=5 experiments. Data are shown as mean ± SD. • Figure 8. […] 1x10^5 OPM cells were cultured with the different compounds for three days. The concentration of lenalidomide was 12µM for OPM and 80µM for RPMI cells. Then cell viability was measured by DIOC6 staining in flow cytometry. Results represent data from eight and five OPM n=8, RPMI n=5 separate experiments, respectively. Data are shown as mean ± SD. • Figure 9. […] (A) Flow cytometric results. (B) We analyzed the effect of CIC on the Wnt/beta catenin pathway by Western blot. • Figure 10A. Western Blot analysis for the detection of β-catenin in myeloma cell lines under normal conditions. The myeloma cell lines RPMI 8226, KMS-18 and U266 were analyzed according to their β-catenin expression. • Figure 10B.

[13] = tested on: MPC 11; experiment: Cell viability by DiOC6 staining, flow cytometry; assay type: cell-based; settings: Mus musculus, 72 h; MPC 11 (murine); three days
Description: Then cell viability was measured by DIOC6 staining in flow cytometry. […] Then cell viability was measured by DIOC6 staining in flow cytometry. Results represent data from two separate experiments. […] Six animals were used in each group. […] Six animals were used in each group.

[14] = tested on: KMS18; experiment: Cell viability by DiOC6 staining, flow cytometry; assay type: cell-based; settings: Homo sapiens, 72 h, three days
Excerpt: as §3

[15] = tested on: primary myeloma cells derived from bone marrow from patients with multiple myeloma; experiment: Viability of myeloma primary cells from bone marrow; assay type: cell-based, human; settings: incubated three days; preliminary data
Description: Bone marrow samples from patients with myeloma were taken after informed consent, single cell suspensions generated and cells ficolled. Cells were incubated with or without EA for three days and measured for viability.
as §1
Bone marrow samples from patients with myeloma were taken after informed consent, single cell suspensions generated and cells ficolled. Cells were incubated with or without CIC for three days and measured for viability.
Bone marrow samples from patients with myeloma were taken after informed consent, single cell suspensions generated and cells ficolled. Cells were incubated with or without GF for three days and measured for viability.

[16] = tested on: Daudi and Raji cells; experiment: Cell viability in combination experiments, lymphoma cells; assay type: cell-based, human; settings: single drug or combination; data not shown

| IC50 [11] [µM] | SMILES | IC50 [1] [µM] | IC50 [2] [µM] | effect on normal PBMC and PBL [2] | viability of lymphoma cell lines in vitro [3] | IC50 [5] [µM] | IC50 [6] [µM] | IC50 [7] [µM] | IC50 [8] [µM] | IC50 [9] [µM] | IC50 [10] [µM] | viability of myeloma cell lines in vitro [1] | overall survival time [12] | animals in which solid tumor nodules formed [12] | IC50 [13] [µM] | effect on normal PBL [5] | growth of primary myeloma cells [15] | other results |
| --- | --- | --- | --- | --- | --- | --- | --- | --- | --- | --- | --- | --- | --- | --- | --- | --- | --- | --- |
| 53 | O=C1CCC(N2C(=O)c3ccccc3C2=O)C(=O)N1 (racemic) [thalidomide, (RS)-2-(2,6-dioxopiperidin-3-yl)-1H-isoindole-1,3(2H)-dione] | > 251 | > 400 | no effect | no effect | > 400 | > 400 | > 400 | > 400 | > 400 | 300 |  |  |  |  |  |  | viability of OPM-2, U-266 and RPMI-8226 myeloma cells ([1]; thalidomide 160µM for U266, 20µM for RPMI, 40µM for OPM, three days): significant decrease in viability; effect on normal PBL [4]: no effect |
| 13 | Nc1cccc2c1CN(C1CCC(=O)NC1=O)C2=O (racemic) [lenalidomide, (RS)-3-(4-amino-1-oxo-3H-isoindol-2-yl)piperidine-2,6-dione] | 16.3 | > 400 | marginal | no effect | > 200 | > 1000 | > 1000 | > 1000 | 2 | 34 |  |  |  |  | marginal |  | viability of OPM-2 and RPMI-8226 myeloma cells ([1]; lenalidomide 12µM for OPM, 80µM for RPMI, three days): significant decrease in viability |
|  | COc1cccc2c1C(=O)c1c(O)c3c(c(O)c1C2=O)C[C@@](O)(C(=O)CO)C[C@@H]3O[C@H]1C[C@H](N)[C@H](O)[C@H](C)O1 [doxorubicin] |  |  |  |  |  |  |  |  |  |  |  |  |  |  |  |  | viability of Daudi and Raji cells [16]: significant decrease in viability |
|  | COC1=CC(=O)C[C@@H](C)[C@]12Oc1c(Cl)c(OC)cc(OC)c1C2=O [griseofulvin, (2S,6'R)-7-chloro-2',4,6-trimethoxy-6'-methyl-3H,4'H-spiro [1-benzofuran-2,1'-cyclohex[2]ene]-3,4'-dione] | 22 | 180 |  | significantly (p<0.05) decreased | 80 | 22 | 33 | 30 | 26 | 18 | significantly decreased the viability | significantly (p<0.05) longer | 5 of 6 | 41 |  | inhibits the growth |  |
|  | CC(C)C[C@H](NC(=O)[C@H](Cc1ccccc1)NC(=O)c1cnccn1)B(O)O [bortezomib] |  |  |  |  |  |  |  |  |  |  |  |  |  |  |  |  | viability of OPM-2 myeloma cells ([11]; bortezomib alone or in combination, data not shown): significant decrease in viability |

| SMILES | IC50 [11] [µM] | IC50 [1] [µM] | IC50 [2] [µM] | effect on normal PBMC and PBL [2] | viability of lymphoma cell lines in vitro [3] | IC50 [5] [µM] | IC50 [6] [µM] | IC50 [7] [µM] | IC50 [8] [µM] | IC50 [9] [µM] | IC50 [10] [µM] | viability of myeloma cell lines in vitro [1] | overall survival time [12] | animals in which solid tumor nodules formed [12] | IC50 [13] [µM] | effect on normal PBL [5] | growth of primary myeloma cells [15] | other results |
| --- | --- | --- | --- | --- | --- | --- | --- | --- | --- | --- | --- | --- | --- | --- | --- | --- | --- | --- |
| Cc1cc(CC(C)CC(C)(C)C)n(O)c(=O)c1 (stereo not shown) [piroctone olamine] | 0.7 | 0.6 |  |  | significantly (p<0.05) decreased | 18 | 0.7 | 0.6 | 0.6 | 0.6 | 0.6 | significantly decreased the viability | significantly (p<0.05) longer | 5 of 6 | 0.8 | marginal | inhibits the growth | IC50 [14]: 0.6 µM |
